From patent US20030207393A1, “Cbp86, a sperm specific protein” (priority 2002, published 2003)
Entries after “also recorded” stand apart in the source; their conditions may differ.

What was measured:
86 kDa form of CBP86 = assay: In vitro capacitation of human sperm, anti-phosphotyrosine (RC-20) 2-D immunoblot of CBP86; format: cell-based; details: for Capacitation-induced tyrosine phosphorylation of the 86 kDa CBP86 isoforms: human sperm capacitated in HTF plus HSA plus 100 μμM progesterone plus 100, 200 or 400 μμM of inhibitor
Procedure: Preparation of semen specimens and solubilization of sperm proteins were performed as previously described (Naaby-Hansen et al, 1997a.) For analytical two-dimensional electrophoresis the detergent/urea extracted proteins were separated by isoelectric focusing (IEF) in acrylamide tube gels prior to second dimensional gel electrophoresis (SDS-PAGE), which was performed in a Protean II xi Multi-Cell apparatus (Bio-Rad, Richmond, Calif.) or on large format (23×23 cm) gels (Investigator 2-D Electrophoresis System, ESA) which were also employed for preparative 2D gel electrophoresis. Electrotransfer to nitrocellulose membranes and subsequent visualizing of the proteins by gold staining was accomplished as previously described (Naaby-Hansen et al, 1997) while electrotransfer to PVDF membranes ([…], Pierce) was carried out as described by Henzel et al. (1993) using the transfer buffer composition of Matsudaira (1987) (10 mM 3-[cyclohexylamino]-1-propanesulfonic acid, 10% methanol, pH 11). The immobilized proteins were visualized by staining in a solution containing 0.1% Commassie R250, 40% methanol and 0.1% acetic acid for one minute, followed by destaining in a solution of 10% acetic acid and 50% methanol for 3×3 minutes.
Motile sperm were harvested by the swim up method of Bronson and Fusi (1990). A control sample was removed and snap frozen (−70 C.), while the remaining sperm were resuspended in one of the following media: Dulbecco's PBS, BWW, BWW plus 3 mM b-cyclodextran (Sigma), BWW plus b-cyclodextran and 100 μμM progesterone, human tubal fluid [HTF] (Irvine) plus HSA (30 mg/ml), HTF plus HSA plus 2, 20 or 100 μμM progesterone, HTF plus HSA plus 100 μμM progesterone plus either 100, 200 or 400 μμM of genestein or daidzein. (Akiyama et al., 1987). Capacitation was achieved by incubating the samples at 37° C. in 5% CO2 with sperm removed at various timepoints and isolated by centrifugation. […]

[1] = system: T1, recombinant CBP86 (CR-A of CBP86 with C-terminal six-histidine tag, expressed in E. coli)
T1 sequence: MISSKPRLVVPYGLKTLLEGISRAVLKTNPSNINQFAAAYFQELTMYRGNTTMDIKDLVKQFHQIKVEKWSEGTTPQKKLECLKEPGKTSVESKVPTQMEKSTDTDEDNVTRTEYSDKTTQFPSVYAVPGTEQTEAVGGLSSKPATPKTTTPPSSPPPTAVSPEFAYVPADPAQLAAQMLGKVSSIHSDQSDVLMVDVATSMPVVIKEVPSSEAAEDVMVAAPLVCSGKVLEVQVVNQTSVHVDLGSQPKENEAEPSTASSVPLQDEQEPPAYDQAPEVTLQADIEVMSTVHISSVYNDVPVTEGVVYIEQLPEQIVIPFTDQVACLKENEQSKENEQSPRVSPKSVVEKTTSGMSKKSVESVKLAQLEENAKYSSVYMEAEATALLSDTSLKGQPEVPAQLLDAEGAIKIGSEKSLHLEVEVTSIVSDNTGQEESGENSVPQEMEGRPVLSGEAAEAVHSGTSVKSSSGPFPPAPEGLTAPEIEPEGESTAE

O=c1c(-c2ccc(O)cc2)coc2cc(O)cc(O)c12 [genistein]
Capacitation-induced tyrosine phosphorylation of the 86 kDa CBP86 isoforms (86 kDa form of CBP86): inhibited in a concentration dependent manner

CC(=O)[C@H]1CC[C@H]2[C@@H]3CCC4=CC(=O)CC[C@]4(C)[C@H]3CC[C@]12C [progesterone]
Tyrosine phosphorylation of the most acidic of the CBP86 isoforms (86 kDa form of CBP86; 100 microM added to HTF+ albumin capacitation media, compared with HTF plus albumin alone): further enhanced the phosphorylation; also recorded: leads to phosphorylation of tyrosine residues on the acidic CBP86 isoforms

baculovirus expressed c-Src (Upstate Biotechnology, Inc.)
tyrosine phosphorylation of recombinant CBP86 in an in vitro kinase assay ([32P]ATP, SDS-PAGE, autoradiography) [1]: An increase in tyrosine phosphorylation of CBP86 was noted as its concentration increased in the presence of a constant amount of c-Src

O=c1c(-c2ccc(O)cc2)coc2cc(O)ccc12 [daidzein]
Capacitation-induced tyrosine phosphorylation of the 86 kDa CBP86 isoforms (86 kDa form of CBP86): had an inhibitory effect on phosphorylation of CBP86
